Results on 3 compounds are retold here after patent US4597901A, “β-indolylalanyl or β-indolylglycinyl vasopressin antagonists” (SmithKline Beckman Corporation, priority 1984, dated 1986).

*1 amine or outer side, *2 acyl side, *3 side chain or, on linkers, in order; H or OH if unused. Where a SMILES comes first, the peptide text is derived from it. Bridges are numbered along the chain shown (N, C = ends). [ ]: non-standard residue; d: D form. The star is where a group is joined. X1 = O=C(CC1(S[*:2])CCCCC1)[*:1]; For = O=C*

Sequence of vasopressin receptors [V2 -receptors] (P32307 whole entry): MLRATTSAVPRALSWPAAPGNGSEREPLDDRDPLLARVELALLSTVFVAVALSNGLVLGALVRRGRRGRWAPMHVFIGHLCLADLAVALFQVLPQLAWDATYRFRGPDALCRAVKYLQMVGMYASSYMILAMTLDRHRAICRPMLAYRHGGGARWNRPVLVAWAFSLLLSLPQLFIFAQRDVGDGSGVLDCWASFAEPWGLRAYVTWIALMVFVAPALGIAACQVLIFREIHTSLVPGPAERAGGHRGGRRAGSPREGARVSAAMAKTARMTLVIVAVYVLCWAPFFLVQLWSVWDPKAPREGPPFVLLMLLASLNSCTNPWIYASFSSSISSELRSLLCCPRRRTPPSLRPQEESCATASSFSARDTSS

The experiment deals with vasopressin receptors [V2 -receptors] (Sus scrofa, UniProt P32307). The experiment is described as follows: biochemical. From the text:
Details of the in vitro protocols are in F. L. Stassen et al., J. of Pharm. Exp. Ther. 233, 50-54 (1982) but the calculations of cyclase activity and binding potential at the receptor site are as follows:
Test Procedure for Binding Assay:
These values represent total and non-specific binding, respectively.
Take `CC(C)[C@@H]1NC(=O)[C@H](Cc2ccccc2)NC(=O)[C@@H](Cc2cn(C=O)c3ccccc23)NC(=O)CC2(CCCCC2)SSC[C@@H](C(=O)N2CCC[C@H]2C(=O)N[C@@H](CCCNC(=N)N)C(=O)NCC(N)=O)NC(=O)[C@H](CC(N)=O)NC1=O` [D-Trp (For), [1-(β-mercapto-β,β-cyclopentamethylenepropionic acid)-2-D-tryptophan-(N-formyl)-4-valine-8-arginine]vasopressin] ([dW](For)FVNCPRG-NH2; linker N-5 via X1): the Kb came out at 78 nM.

Compound `CC(C)[C@@H]1NC(=O)[C@H](Cc2ccccc2)NC(=O)[C@H](Cc2cn(C=O)c3ccccc23)NC(=O)CC2(CCCCC2)SSC[C@@H](C(=O)N2CCC[C@H]2C(=O)N[C@@H](CCCNC(=N)N)C(=O)NCC(N)=O)NC(=O)[C@H](CC(N)=O)NC1=O` [L-Trp (For)] (W(For)FVNCPRG-NH2; linker N-5 via X1) had a Kb of 840 nM.

Turning to `CC(C)[C@@H]1NC(=O)[C@H](Cc2ccccc2)NC(=O)[C@H](Cc2c[nH]c3ccccc23)NC(=O)CC2(CCCCC2)SSC[C@@H](C(=O)N2CCC[C@H]2C(=O)N[C@@H](CCCNC(=N)N)C(=O)NCC(N)=O)NC(=O)[C@H](CC(N)=O)NC1=O` [L-Trp] (WFVNCPRG-NH2; linker N-5 via X1), the Kb was found to be 2100 nM.
